Like-named read-outs stand apart in the source and are kept apart here.
What was measured:
Format in all cases: in vivo
[1] = system: Matricaria inodora (MATIN); assay: Pre-emergence herbicidal action against MATIN; settings: dosage 320 g/ha
Outline: (§1)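 Application rates ran to 320 g/ha or lower, with several dosages tested on the same weeds. The compound, as wettable powder or emulsion concentrate, is sprayed pre-emergence onto soil over sown seeds; greenhouse growth follows, and effect is rated visually after roughly 3 weeks.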

Viola tricolor (VIOTR) [2] = assay: Pre-emergence herbicidal action against VIOTR
Outline: as §1

[3] = system: Alopecurus myosuroides (ALOMY); assay: Post-emergence herbicidal action against ALOMY; settings: visual rating about 3 weeks after treatment vs untreated controls (100% = plants have died, 0% = like control plants)
Outline: (§2)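 Rates were 320 g/ha or below, applied as aqueous WP/EC spray with 0.5% additive (600 l/ha) onto one-leaf-stage plants. About 3 weeks later in the greenhouse, damage was scored visually against untreated plants on a 0–100% scale, where 100% means plants died.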

Setaria viridis (SETVI) [4] = assay: Pre-emergence herbicidal action against SETVI
Outline: as §1

[5] = system: Verconica persica (VERPE); assay: Pre-emergence herbicidal action against VERPE; settings: dosage 320 g/ha
Outline: as §1

[6] = system: Amaranthus retroflexus (AMARE); assay: Pre-emergence herbicidal action against AMARE; settings: visual scoring after about 3 weeks vs untreated controls
Outline: as §1

[7] = system: Abutilon theophrasti (ABUTH); assay: Post-emergence herbicidal action against ABUTH; settings: visual rating about 3 weeks after treatment vs untreated controls (100% = plants have died, 0% = like control plants)
Outline: as §2

[8] = system: Alopecurus myosuroides (ALOMY); assay: Pre-emergence herbicidal action against ALOMY; settings: scored visually after about 3 weeks, 100% = plants have died
Outline: as §1

[9] = system: Digitaria sanguinalis (DIGSA); assay: Pre-emergence herbicidal action against DIGSA
Outline: as §1

[10] = system: Echinochloa crus-galli (ECHCG); assay: Pre-emergence herbicidal action against ECHCG; settings: dosage 320 g/ha
Outline: as §1

Zea mays (ZEAMX) [11] = settings: pre-emergence, 80 g/ha, crop plant compatibility, in comparison to untreated controls
From the text: Seeds of monocotyledonous and dicotyledonous weed plants and crop plants are placed in plastic or organic planting pots and covered with soil. The compounds of the invention, formulated in the form of wettable powders (WP) or as emulsion concentrates (EC), are then applied to the surface of the covering soil as aqueous suspension or emulsion with addition of 0.5% additive at a water application rate equivalent to 600 l/ha. After the treatment, the pots are placed in a greenhouse and kept under good growth conditions for the trial plants. After about 3 weeks, the effect of the preparations is scored visually in comparison with untreated controls as percentages. For example, 100% activity=the plants have died, 0% activity=like control plants.
The observed effects on selected crop plants are reported here in comparison to the untreated controls (values in %). The appendices “a” “b” and “c” give differentiation by dosage used with otherwise the same crop plants tested.

Zea mays (ZEAMX) [12] = settings: for Post-emergence action against ZEAMX in %: crop plant compatibility, 80 g/ha, effect vs untreated controls
Outline: (§3)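 Percent effect on the crop was judged by eye against untreated controls, where 0% means like control and 100% means dead plants. Plants had been sprayed post-emergence at the one-leaf stage and then kept under optimum greenhouse conditions for about 3 weeks.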

Oryza sativa (ORYSA) = settings: crop plant compatibility
Outline: as §3

Setaria viridis (SETVI) [13] = assay: Post-emergence herbicidal action against SETVI
Outline: as §2

[14] = system: Amaranthus retroflexus (AMARE); assay: Post-emergence herbicidal action against AMARE
Outline: as §2

[15] = system: Polygonum convolvulus (POLCO); assay: Pre-emergence herbicidal action against POLCO
Outline: as §1

[16] = system: Pharbitis purpurea (PHBPU); assay: Pre-emergence herbicidal action against PHBPU; settings: dosage 320 g/ha
Outline: as §1

Lolium rigidum (LOLRI) [17] = assay: Pre-emergence herbicidal action against LOLRI
Outline: as §1

[18] = system: Digitaria sanguinalis (DIGSA); assay: Post-emergence herbicidal action against DIGSA; settings: visual rating about 3 weeks after treatment
Outline: as §2

[19] = system: Verconica persica (VERPE); assay: Post-emergence herbicidal action against VERPE
Outline: as §2

[20] = system: Echinochloa crus-galli (ECHCG); assay: Post-emergence herbicidal action against ECHCG
Outline: as §2

Avena fatua (AVEFA) [21] = assay: Pre-emergence herbicidal action against AVEFA; settings: 320 g/ha, visual scoring after about 3 weeks vs untreated controls
Outline: as §1

[22] = system: Matricaria inodora (MATIN); assay: Post-emergence herbicidal action against MATIN
Outline: as §2

[23] = system: Pharbitis purpurea (PHBPU); assay: Post-emergence herbicidal action against PHBPU
Outline: as §2

Viola tricolor (VIOTR) [24] = assay: Post-emergence herbicidal action against VIOTR
Outline: as §2

[25] = system: Polygonum convolvulus (POLCO); assay: Post-emergence herbicidal action against POLCO
Outline: as §2

Lolium rigidum (LOLRI) [26] = assay: Post-emergence herbicidal action against LOLRI
Outline: as §2

Avena fatua (AVEFA) [27] = assay: Post-emergence herbicidal action against AVEFA; settings: visual rating about 3 weeks after treatment
Outline: as §2

[28] = 80 g/ha, visual scoring after about 3 weeks vs untreated controls
[29] = 20 g/ha, effect vs untreated controls
[30] = 80 g/ha, effect in comparison to untreated controls
[31] = 80 g/ha, visual rating about 3 weeks after treatment vs untreated controls (100% = plants have died, 0% = like control plants)
[32] = 320 g/ha, effect in comparison to untreated controls
[33] = 320 g/ha, visual rating about 3 weeks after treatment

Structure (SMILES)	Pre-emergence action against MATIN in % [1] [%]	Pre-emergence action against VIOTR in % (Viola tricolor (VIOTR) [2]; 320 g/ha, Viola tricolor) [%]	Post-emergence action against ALOMY in % ([3]; 80 g/ha) [%]	Pre-emergence action against SETVI in % (Setaria viridis (SETVI) [4]; dosage 320 g/ha) [%]	Pre-emergence action against VERPE in % [5] [%]	Pre-emergence action against AMARE in % ([6]; 320 g/ha) [%]	Pre-emergence action against ALOMY ([8]; 320 g/ha) [%]	Pre-emergence action against DIGSA in % [9, 28] [%]	Pre-emergence action against DIGSA in % ([9]; dosage 320 g/ha) [%]	Pre-emergence action against ECHCG in % [10] [%]	Pre-emergence action against ZEAMX in % (Zea mays (ZEAMX) [11]) [%]	Post-emergence action against ORYSA in % (Oryza sativa (ORYSA); [30]) [%]	Post-emergence action against SETVI in % (Setaria viridis (SETVI) [13]; dosage 80 g/ha) [%]	Pre-emergence action against LOLRI in % (Lolium rigidum (LOLRI) [17]; dosage 320 g/ha) [%]	Post-emergence action against PHBPU in % ([23]; dosage 80 g/ha) [%]	Post-emergence action against VIOTR in % (Viola tricolor (VIOTR) [24]; 320 g/ha) [%]	Post-emergence action against ZEAMX in % (Zea mays (ZEAMX) [12]) [%]	Post-emergence action against AMARE in % [14, 33] [%]	Post-emergence action against POLCO in % ([25]; dosage 320 g/ha) [%]	Post-emergence action against PHBPU in % ([23]; dosage 320 g/ha) [%]	further results
CCOC(=O)CN(C)S(=O)(=O)NC(=O)COc1nn(-c2ncccc2F)c(-c2ccc(F)nc2)c1Br [Example I-54]	100	100	90	100	100	100	100	100	100	100	0	0	80	–	–	–	–	–	–	–	Pre-emergence action against VIOTR in % (Viola tricolor (VIOTR) [2]; dosage 80 g/ha): 100%; Post-emergence action against ABUTH in % ([7]; 80 g/ha): 80%; Post-emergence action against ZEAMX in % (crop plant compatibility) (Zea mays (ZEAMX) [12]; 20 g/ha, ZEAMX, effect in comparison to untreated controls): 0%; Post-emergence action against ORYSA in % (Oryza sativa (ORYSA); [29]): 0%; Post-emergence action against AMARE in % [14, 31]: 80%; Pre-emergence action against POLCO in % ([15]; dosage 320 g/ha): 90%
O=C(O)CNC(=O)COc1nn(-c2ccccn2)c(-c2ccc(F)nc2)c1Cl [Example I-118]	90	100	100	100	90	100	100	100	100	100	–	0	80	100	80	–	–	–	–	–	Pre-emergence action against PHBPU in % [16]: 90%; Pre-emergence action against SETVI in % (Setaria viridis (SETVI) [4]; dosage 80 g/ha): 90%; Pre-emergence action against AMARE in % ([6]; 80 g/ha): 90%; Post-emergence action against ABUTH in % ([7]; 80 g/ha): 80%; Pre-emergence action against ALOMY ([8]; 80 g/ha): 90%; Pre-emergence action against LOLRI in % (Lolium rigidum (LOLRI) [17]; dosage 80 g/ha): 90%; Post-emergence action against DIGSA in % ([18]; 80 g/ha): 80%; Post-emergence action against VERPE in % ([19]; dosage 80 g/ha): 90%; Post-emergence action against ECHCG in % ([20]; dosage 80 g/ha): 80%; Post-emergence action against ORYSA in % (Oryza sativa (ORYSA); [29]): 0%; Post-emergence action against AMARE in % [14, 31]: 90%; Pre-emergence action against AVEFA in % (Avena fatua (AVEFA) [21]): 90%; Post-emergence action against MATIN in % ([22]; dosage 80 g/ha): 80%; Pre-emergence action against POLCO in % ([15]; dosage 80 g/ha): 80%; Pre-emergence action against POLCO in % ([15]; dosage 320 g/ha): 90%
O=C(O)COc1nn(-c2ccccn2)c(-c2ccc(Cl)nc2)c1Br [Example I-235]	–	–	–	–	80	90	–	–	90	–	0	0	–	–	80	80	20	80	80	80	Pre-emergence action against AMARE in % ([6]; 80 g/ha): 80%; Post-emergence action against VIOTR in % (Viola tricolor (VIOTR) [24]; 80 g/ha): 80%; Post-emergence action against VERPE in % ([19]; 320 g/ha, VERPE): 80%; Post-emergence action against ORYSA in % (Oryza sativa (ORYSA); [32]): 0%; Post-emergence action against AMARE in % [14, 31]: 80%
COC(=O)[C@@H](C)Oc1nn(-c2ccccn2)c(-c2ccc(Cl)nc2)c1Cl [Example I-237]	–	–	–	–	–	100	90	–	90	–	0	0	–	90	80	80	10	90	80	90	Post-emergence action against ALOMY in % ([3]; 320 g/ha): 80%; Post-emergence action against LOLRI in % (Lolium rigidum (LOLRI) [26]; dosage 320 g/ha): 80%; Post-emergence action against DIGSA in % ([18]; 320 g/ha): 90%; Post-emergence action against AVEFA in % (Avena fatua (AVEFA) [27]; 320 g/ha): 80%; Post-emergence action against ORYSA in % (Oryza sativa (ORYSA); [32]): 20%; Pre-emergence action against POLCO in % ([15]; dosage 320 g/ha): 80%
CCOC(=O)COc1nn(-c2ccccn2)c(-c2ccc(Cl)nc2)c1Cl [Example I-241]	–	–	–	–	–	90	80	–	90	–	0	0	–	90	80	80	0	80	80	90	Post-emergence action against VERPE in % ([19]; 320 g/ha, VERPE): 80%; Post-emergence action against ORYSA in % (Oryza sativa (ORYSA); [32]): 0%; Post-emergence action against POLCO in % ([25]; dosage 80 g/ha): 80%; Post-emergence action against MATIN in % ([22]; dosage 320 g/ha): 80%
CCOC(=O)COc1nn(-c2nc(F)ccc2F)c(-c2ccc(F)nc2)c1C1CC1 [Example I-348]	90	90	80	100	90	90	80	90	100	90	–	0	80	100	80	80	20	80	80	80	Pre-emergence action against PHBPU in % [16]: 90%; Pre-emergence action against VIOTR in % (Viola tricolor (VIOTR) [2]; dosage 80 g/ha): 80%; Post-emergence action against ALOMY in % ([3]; 320 g/ha): 90%; Pre-emergence action against SETVI in % (Setaria viridis (SETVI) [4]; dosage 80 g/ha): 80%; Post-emergence action against ABUTH in % ([7]; 320 g/ha): 80%; Post-emergence action against VIOTR in % (Viola tricolor (VIOTR) [24]; 80 g/ha): 80%; Post-emergence action against LOLRI in % (Lolium rigidum (LOLRI) [26]; dosage 80 g/ha): 80%; Post-emergence action against LOLRI in % (Lolium rigidum (LOLRI) [26]; dosage 320 g/ha): 80%; Pre-emergence action against LOLRI in % (Lolium rigidum (LOLRI) [17]; dosage 80 g/ha): 90%; Post-emergence action against DIGSA in % ([18]; 80 g/ha): 80%; Post-emergence action against DIGSA in % ([18]; 320 g/ha): 90%; Post-emergence action against AVEFA in % (Avena fatua (AVEFA) [27]; 80 g/ha): 80%; Post-emergence action against AVEFA in % (Avena fatua (AVEFA) [27]; 320 g/ha): 80%; Post-emergence action against VERPE in % ([19]; 320 g/ha, VERPE): 80%; Post-emergence action against VERPE in % ([19]; dosage 80 g/ha): 80%; Post-emergence action against ECHCG in % ([20]; dosage 80 g/ha): 90%; Post-emergence action against ECHCG in % ([20]; dosage 320 g/ha): 90%; Post-emergence action against SETVI in % (Setaria viridis (SETVI) [13]; dosage 320 g/ha): 90%; Pre-emergence action against AVEFA in % (Avena fatua (AVEFA) [21]): 90%; Post-emergence action against MATIN in % ([22]; dosage 320 g/ha): 80%
